What is called melting point is the temperature, or range, at which the solid turns liquid.

Regarding `CCCc1c(OCCCCCC(=O)c2ccc(OC)c(OC)c2)ccc(C(=O)O)c1O`, the melting point lay within 114 to 117 °C. `NS(=O)(=O)c1ccccc1N1CCCC1` yielded a melting point of 78 °C. Compound `Cn1ncnc1COc1nc2c(nnn2-c2ccccc2)c2ccccc12` returned a melting point of 188 to 190 °C. Next, `CON=C(C(=O)Nc1ccc(C(=O)O)cc1)c1ccc2c(c1)C(C)(C)CCC2(C)C`: 208 to 209 °C; `NS(=O)(=O)c1ccc(N2CCN(CCCC3OCCc4ccccc43)CC2)cc1` (racemic): 177 to 178 °C; `c1coc(C2Nc3ccccc3N3CCc4cccc2c43)c1` (configuration not stated): 141 to 144 °C. Compound `COc1ccc(-n2cc(C)cc2-c2ccc(S(C)(=O)=O)cc2)cc1` displayed a melting point of 154 to 160 °C. As for `O=C(CCc1ccsc1)CC(=O)N1CCOCC1`, the figure is 81 to 84 °C.

`O=c1cc(O)c2cccc([N+](=O)[O-])c2o1`: the melting point was in the range of 242 to 245 °C.

Take `CCOC(=O)c1c2ccc(Cl)cc2c(-c2ccccc2)n1CCCC(C)=O`: the melting point fell in the range of 94 to 95 °C. As for `CN/C(=C1/Sc2ccccc2C1=O)c1ccccc1`, the figure is 154 to 155 °C.

The compound `Cc1c(CCN(C(=O)C(F)(F)F)c2cc3ccccc3n2C)ncn1S(=O)(=O)N(C)C` returned a melting point of 156 to 158 °C.

The compound `COc1cc(OC)c2c(-c3ccc4c(c3)OCO4)c3c(cc2c1)C(=O)NC3` came in with a melting point of 252 to 254 °C.

For the compound `CCCCOCCN(CCCCCSc1nc(-c2ccccc2)c(-c2ccccc2)[nH]1)C(=O)Nc1ccc(F)cc1F`, the melting point lay within 69 to 71 °C. Next, `CCC(=CC#N)c1ccc2c(c1)C1(CCCCC1)OC(=O)N2`: 173 to 174 °C; `ClC=C(Cl)n1c2ccccc2c2ccccc21`: 51 to 53 °C.

The compound `CCOC(=O)c1cn(C2CC2)c2cc(C3=CCN(C(C)=O)CC3)c(F)cc2c1=O` registered a melting point of 190 to 192 °C. Next, `CC(C)(C)COc1cccc(C[C@H]2NC(=O)O[C@H]2c2cccc(Cl)c2)c1` (racemic): 141 to 142 °C; `CCOC(=O)c1cnc(CCOC)nc1NCc1ccc(-c2ccccc2-c2nnnn2C(c2ccccc2)(c2ccccc2)c2ccccc2)cc1`: 128 to 130 °C. `O=S1(=O)N=CN(C2CC2)c2ccccc21` displayed a melting point of 191 to 194 °C.

Turning to `OCc1ccc(-c2ccc3nc(-c4ccc(Cl)cc4)cn3c2)o1`, the melting point is 197 to 199 °C. `O=C(O)c1c(F)c(F)c(O)c(Cl)c1F` returned a melting point of 87 to 90 °C. Turning to `CN1CC(CCCN2CCN(c3ccccc3O)CC2)OC1=O` (configuration not stated), the melting point was 112 to 116 °C. Next, `COC(=O)C1(C(=O)O)CCc2cc(C3CCCCCC3)ccc21` (configuration not stated): 140 to 141 °C; `[N-]=[N+]=NC(C(=O)O)C1c2ccccc2C=Cc2ccccc21` (configuration not stated): 119 to 120 °C; `COC(=O)c1ccc(C(O)c2cc3cc(C(F)(F)F)ccc3n2S(=O)(=O)c2ccc3c(c2)N(C)CCO3)cc1` (configuration not stated): 80 °C.

On to `COc1cc2c(c3c1OC(C)(C)C3)C(c1ccnc(Cl)c1)=NC(C)(C)C2`, for which the melting point lay within 139 to 140 °C. In turn, `O=C(c1ccccc1Cl)c1cc(Cl)ccc1C#CCN1C(=O)c2ccccc2C1=O` registered a melting point of 144 to 145 °C. Next, `Cc1cc(C)cc(Sc2c(C(C)C)nc(CCOC(N)=O)n2C)c1`: 138 to 140 °C.

Take `COC(=O)c1c(-c2ccc(F)cc2)ccc2ccccc12`: the melting point lay in the range of 113 to 114 °C. As for `NCCN1CCC(Nc2nc3ccccc3[nH]2)CC1`, the figure is 99.8 °C.

Take `C=Cc1[nH]c2cccc3c2c1CC1C3CC(NC(=O)N(CC)CC)CN1C` (configuration not stated): the melting point lay in the range of 145 to 150 °C. `CSc1nc(NCc2ccc(-c3ccsc3)cc2)n2ncc(C(C)C)c2n1` showed a melting point of 141 to 143 °C. As for `COc1ccc(C2CCOCC2)cc1N`, the figure is 102 to 103 °C; as for `COc1ccc(Oc2ccc(NC(=O)N3CCc4ccccc4CC3)cn2)cc1`, 156 to 157 °C; as for `O=C(Cn1nc(-c2ccccc2O)nc1-c1ccccc1O)NCCN1CCOCC1`, 180 to 182 °C.

With `CC(C#N)=C1CCN(c2ccc(N3C[C@H](CNC(=O)C(F)F)OC3=O)cc2F)CC1`, the melting point lay within 172 to 174 °C. As for `Cc1cc(C)cc(-c2cnn3c(-c4cccc(NC(=O)CC(C)C)c4)ccnc23)c1`, the figure is 178 to 180 °C.

Turning to `CCCCCC1OCc2cc(C(=O)Oc3ccc(CCC)cc3)ccc2O1` (configuration not stated), the melting point was determined as 97.5 °C.

With `CCOC(=O)c1cc(-c2ccc(Cl)cc2)n(-c2ccc(OC)cc2)n1`, the melting point lay within 107 to 108 °C. Turning to `COc1ccc(C=CC(=O)C(CCC(=O)O)(Cc2ccccc2Cl)c2ccccc2)cc1` (configuration not stated), the melting point is 152 to 157 °C. Regarding `O=C1CCCN1CC1CCN(c2nc(C(F)(F)F)ncc2OCc2ccccc2)CC1`, the melting point is 155 to 157 °C. Consider `CC=CCn1c(C)c(C)c2cnnc(OCc3cccnc3)c21`, for which the melting point is 80 to 81 °C.

`CCCCc1c(OC)cc(C(=O)O)nc1OC`: the melting point was 113 to 114 °C. Next, `Cc1nn(C)c(N)c1C(=O)Nc1cccc(Cl)c1`: 87 to 92 °C. Next, `O=C(/C=C/c1ccc(OC(F)(F)F)cc1)/C=C/c1ccc(C(F)(F)F)cc1`: 97 to 99 °C; `COc1cccc(NS(=O)(=O)c2ccc(N3CCNC3=O)cc2)c1`: 179 to 181 °C. Take `CCOC(=O)c1ccc(N=C(Nc2ccc(C(=O)OCC)cc2)c2ccc([N+](=O)[O-])cc2)cc1`: the melting point was in the range of 202 to 205 °C. As for `Cc1ccc(C(=S)C=CC(=O)Nc2c(C)cccc2C)cc1`, the figure is 216 to 217 °C; as for `CCOC(=O)c1cn(Cc2ccccc2)nc1OCc1ccc(OCc2nc(-c3ccco3)oc2C)c(OCc2ccccc2)c1`, 127 to 128 °C. Compound `C=C1CC(COc2cccc3cccnc23)(c2ccccc2)OC1=O` (configuration not stated) showed a melting point of 101 to 102 °C. Consider `CCOC(=O)/C=C(/c1ccc(OCC)cc1)c1cc(Cl)cc(Cl)c1`, for which the melting point lay in the range of 104 to 106 °C.

Turning to `COc1nc(C)nc(NC(=O)NS(=O)(=O)c2ccccc2Cc2nnc(SC)s2)n1`, the melting point was 140 to 146 °C.

On to `CC(=O)Nc1nc2ccc(O)cc2n1S(=O)(=O)N(C)C`, for which the melting point is 175 to 176 °C.

Compound `Cc1cc(NCc2ccccc2)c(C)c2c1OCC2c1ccc(C(C)C)cc1` (configuration not stated) showed a melting point of 82 to 83 °C.

Compound `Clc1ccc2c(c1)C(c1ccccc1)=NCc1n[nH]nc1-2` yielded a melting point of 199 to 200 °C. As for `COc1cccc(OC)c1C(=O)NC(=O)Nc1ccc(-c2ccc(Cl)cc2)cn1`, the figure is 205 to 215 °C; as for `CCN(CC)CC=CC(=O)Nc1cc2c(Nc3ccc(F)c(Cl)c3)ncnc2cc1OC1CCC1`, 111 °C; as for `COc1ccc(-c2nc(C(=O)Nc3nccs3)c(-c3ccc(C)cc3)[nH]2)c2ccccc12`, above 250 °C. Next, `O=C(NC1CCCCC1)NC1(N=NC2(NC(=O)NC3CCCCC3)CCCCC2)CCCCC1`: 105 to 109 °C; `Nc1ccc(Oc2cccc3c(Oc4ccc(N)c(O)c4)cccc23)cc1O`: 251 to 253 °C; `CCOC(=O)CCC1(c2c[nH]cn2)Cc2ccccc2C1=O` (configuration not stated): 162 to 165 °C.
